Assay results taken from ChEMBL document CHEMBL1121640, “Analgesic narcotic antagonists. 6. 7 beta, 8 beta-Methano- and 7 beta, 8 beta-epoxydihydrocodeinone” (1981).
Activity calls are given as the source filed them. The rule behind the calls is not given here.

Experiments:
Rattus norvegicus [1] = assay: Compound was tested for analgesic activity by tail-flick assay in rat after subcutaneous administration; type: functional; conditions: sc
Mus musculus [2] = assay: Compound was tested for analgesic activity by writhing assay in mouse after subcutaneous administration; type: functional; conditions: sc
Rattus norvegicus [3] = assay: Compound was tested for narcotic antagonist activity determined using an intraperitoneal ED80 of morphine in rat tail-flick assay; type: functional; conditions: ip
Rattus norvegicus [4] = assay: Compound was tested for analgesic activity by tail-flick assay in rat after subcutaneous administration; Inactive at 65 uM/Kg; type: functional, organism-based
Rattus norvegicus [5] = assay: Compound was tested for analgesic activity by tail-flick assay in rat after subcutaneous administration; Inactive at 25 uM/Kg; type: functional, organism-based
Rattus norvegicus [6] = assay: Compound was tested for analgesic activity by tail-flick assay in rat after subcutaneous administration; Inactive at 32 uM/Kg; type: functional, organism-based
Mus musculus [7] = assay: Compound was tested for analgesic activity by writhing assay in mouse after subcutaneous administration; Inactive at 32 uM/Kg; type: functional, organism-based
Rattus norvegicus [8] = assay: Compound was tested for narcotic antagonist activity determined using an intraperitoneal ED80 of morphine in rat tail-flick assay; Inactive at 25 uM/Kg; type: functional, organism-based
Rattus norvegicus [9] = assay: Compound was tested for narcotic antagonist activity determined using an intraperitoneal ED80 of morphine in rat tail-flick assay; Inactive at 50 uM/Kg; type: functional, organism-based
Rattus norvegicus [10] = assay: Compound was tested for narcotic antagonist activity determined using an intraperitoneal ED80 of morphine in rat tail-flick assay; Inactive at 55 uM/Kg; type: functional, organism-based
Rattus norvegicus [11] = assay: Compound was tested for analgesic activity by tail-flick assay in rat after subcutaneous administration; Inactive at 30 uM/Kg; type: functional, organism-based
Rattus norvegicus [12] = assay: Compound was tested for analgesic activity by tail-flick assay in rat after subcutaneous administration; Inactive at 3 uM/Kg; type: functional, organism-based
Mus musculus [13] = assay: Compound was tested for analgesic activity by writhing assay in mouse after subcutaneous administration; Inactive at 10 uM/Kg; type: functional, organism-based

With `COc1ccc2c3c1O[C@H]1[C@@H](O)CC[C@H]4[C@@H](C2)N(C)CC[C@@]341` [DIHYDROCODEINE] the ED50 (Rattus norvegicus [1]) was greater than 22 µmol/kg and the ED50 (Mus musculus [2]) was 3.8 µmol/kg.
With `COc1ccc2c3c1O[C@H]1[C@@H](O)C=C[C@H]4[C@@H](C2)N(C)CC[C@@]341` [CODEINE] the ED50 (Rattus norvegicus [1]) was 75.1 µmol/kg and the ED50 (Mus musculus [2]) was 10.3 µmol/kg.
With `CC(C)=CCN1CC[C@]2(C)c3cc(O)ccc3C[C@H]1[C@H]2C` [(+)-PENTAZOCINE] the ED50 (Rattus norvegicus [3]) was 36.4 µmol/kg and the ED50 (Mus musculus [2]) was 13 µmol/kg.
In the case of `COc1ccc2c3c1OC1[C@@H](O)[C@@H]4C[C@@H]4C4C(C2)N(C)CCC314` (stereo partly specified), the ED50 (Rattus norvegicus [4]) is reported as “inactive” and the ED50 (Mus musculus [2]) is reported as 1.79 µmol/kg.
Compound `COc1ccc2c3c1OC1C(=O)[C@@H]4C[C@@H]4C4C(C2)N(C)CCC314` (stereo partly specified) has an ED50 (Rattus norvegicus [1]) of 4.7 µmol/kg and an ED50 (Mus musculus [2]) of 0.43 µmol/kg.
In the case of `COc1ccc2c3c1O[C@H]1C(=O)CC(CCl)C4C(C2)N(C)CCC341` (stereo partly specified), the ED50 (Rattus norvegicus [5]) is reported as “inactive” and the ED50 (Mus musculus [2]) is reported as 12.2 µmol/kg.
`COc1ccc2c3c1OC1C(=O)[C@@H]4C[C@@H]4C4C(C2)N(CC2CC2)CCC314` (stereo partly specified) showed an ED50 (Rattus norvegicus [3]) of 8.7 µmol/kg and an ED50 (Mus musculus [2]) of 9 µmol/kg.
In the case of `COc1ccc2c3c1OC1[C@@H](O)[C@@H]4O[C@@H]4C4C(C2)N(C)CCC314` (stereo partly specified), the ED50 (Rattus norvegicus [6]) is reported as “inactive” and the ED50 (Mus musculus [7]) is reported as “inactive”.
In the case of `COc1ccc2c3c1O[C@H]1C(=O)CC(SCCO)C4C(C2)N(C)CCC341` (stereo partly specified), the ED50 (Rattus norvegicus [5]) is reported as “inactive” and the ED50 (Mus musculus [2]) is reported as greater than 25 µmol/kg.
With `Oc1ccc2c(c1)[C@@]13CCCC[C@@]1(O)[C@@H](C2)N(CC1CCC1)CC3` [BUTORPHANOL] the ED50 (Rattus norvegicus [3]) was 2 µmol/kg and the ED50 (Mus musculus [2]) was 0.34 µmol/kg.
`COc1ccc2c3c1O[C@H]1C(=O)C=CC4[C@@H](C2)N(CC2CCC2)CC[C@@]341` (stereo partly specified) was tested, and the ED50 (Rattus norvegicus [8]) was “inactive” and the ED50 (Mus musculus [2]) was 20.3 µmol/kg.
For `COc1ccc2c3c1OC1C(=O)[C@@H]4C[C@@H]4C4C(C2)N(CC2CCC2)CCC314` (stereo partly specified), the ED50 (Rattus norvegicus [9]) was “inactive” and the ED50 (Mus musculus [2]) was 12.4 µmol/kg.
For `COc1ccc2c3c1OC1C(=O)CC(SCCO)C4C(C2)N(CC2CC2)CCC314` (stereo unspecified), the ED50 (Rattus norvegicus [3]) was greater than 30 µmol/kg and the ED50 (Mus musculus [2]) was 3.4 µmol/kg.
`COc1ccc2c3c1OC1[C@@H](O)[C@@H]4C[C@@H]4C4C(C2)N(CC2CCC2)CCC314` (stereo partly specified) was tested, and the ED50 (Rattus norvegicus [10]) was “inactive” and the ED50 (Mus musculus [2]) was greater than 55 µmol/kg.
For `COc1ccc2c3c1OC1C34CCN(C)C(C2)C4[C@H]2O[C@H]2[C@@]1(O)OC` (stereo partly specified), the ED50 (Mus musculus [2]) was 18 µmol/kg and the ED50 (Rattus norvegicus [11]) was “inactive”.
`COc1ccc2c3c1O[C@H]1C(=O)CC[C@H]4[C@@H](C2)N(C)CC[C@]314` [HYDROCODONE] showed an ED50 (Rattus norvegicus [1]) of 5.2 µmol/kg and an ED50 (Mus musculus [2]) of 2.4 µmol/kg.
In the case of `COc1ccc2c3c1OC1C(=O)C=CC4C(C2)N(C)CCC314` (stereo unspecified), the ED50 (Rattus norvegicus [12]) is reported as “inactive” and the ED50 (Mus musculus [13]) is reported as “inactive”.
In the case of `COc1ccc2c3c1OC1C(=O)[C@@H]4O[C@@H]4C4C(C2)N(C)CCC314` (stereo partly specified), the ED50 (Mus musculus [7]) is reported as “inactive” and the ED50 (Rattus norvegicus [1]) is reported as greater than 30 µmol/kg.
